Reference: PMC2829385 (The Journal of investigative dermatology, 2009)
“And” between values parts separate entries of the source, which are not always exact repeats. Identical values can stand only once. “Also recorded” adds a separate entry of the source. Counter-ions that a name gives are not always drawn.

Legend:
[1] = system: primary human keratinocytes; assay: UVB-induced apoptosis, sub-2N DNA content by flow cytometry; type: cell-based
[2] = system: ATR-dependent serine 345 residue of Chk1; assay: Western blot of UVB-induced Chk1 Ser345 phosphorylation in keratinocytes; type: cell-based, human; conditions: 2 mM caffeine, 75 mJ/cm^2 UVB (Figure 2a)
[3] = system: primary human keratinocytes; assay: Western blot of UVB-induced caspase 3 and PARP cleavage in keratinocytes; type: cell-based; conditions: 2 mM caffeine, 75 mJ/cm^2 UVB, 8 h (Figure 1a)
[4] = target: cAMP phosphodiesterase; conditions: read-out: IC50 cAMP phosphodiesterase; ref Butcher and Sutherland, 1962; cited from earlier work
[5] = humans drinking 2–5 cups of coffee per day; ref de Leon et al., 2003; cited from earlier work
[6] = system: phosphorylation of Chk1 on Ser345; conditions: mice, oral caffeine in drinking water 0.4 mg/ml (2 mM); ref Lu et al., 2008; cited from earlier work
[7] = system: UV-induced skin carcinogenesis; conditions: mice, oral caffeine as drinking fluid 0.4 mg/ml; ref Huang et al., 1997; cited from earlier work
[8] = system: ATM; conditions: read-out: IC50 for ATM; ref Sarkaria et al., 1999; cited from earlier work

SMILES: Cn1c(=O)c2c(ncn2C)n(C)c1=O [caffeine, Caffeine]
- proportion of cells undergoing apoptosis (sub-2N DNA content) ([1]; 2 mM caffeine 30 min before 75 mJ/cm^2 UVB, 24 h, UVB alone 10% (Figure 1b)): 24%
- proportion of cells undergoing apoptosis (sub-2N DNA content) ([1]; 2 mM caffeine alone (scrambled siRNA), 75 mJ/cm^2 UVB, 24 h (Figure 2c)): 42%
- proportion of cells undergoing apoptosis (sub-2N DNA content) ([1]; 2 mM caffeine plus ATR siRNA, 75 mJ/cm^2 UVB, 24 h (Figure 2c)): 48%
- increase in UVB-induced apoptosis vs UVB alone (relative cell death) ([1]; 2 mM caffeine pretreatment, 75 mJ/cm^2 UVB (Figure 1c)): two- to three-fold increase; also recorded: more than doubled
- effect on UVB-induced Chk1 phosphorylation at serine 345 [2]: inhibited
- effect on UVB-induced cleavage of caspase 3 and PARP [3]: augmented
- IC50 [4]: 3 mM
- plasma concentration of caffeine [5]: 3.2 mg/l and 16 μM
- effect on UVB-induced phosphorylation of Chk1 on Ser345 in the epidermis [6]: markedly inhibited
- effect on UV-induced skin carcinogenesis [7]: inhibits
- IC50 [8]: 200 µM

SMILES: CCCC(=O)Nc1ncnc2c1ncn2[C@@H]1O[C@@H]2COP(=O)(O)O[C@H]2[C@H]1OC(=O)CCC [dibutyryl cAMP, N^6,2′-O-Dibutyryladenosine 3′,5′-cyclic monophosphate sodium salt]
- effect on UVB-induced apoptosis ([1]; doses up to 300 μM, 30 min before 75 mJ/cm^2 UVB, 24 h (Figure 1d)): no effect
